Data from article PMC8512555, “Patient-Derived Tumor Chemosensitization of GKB202, an Antrodia Cinnamomea Mycelium-Derived Bioactive Compound” (Molecules, 2021).

Legend:
Assay type in all cases: cell-based, human
[1] = tested on: oral cancer (OC) patient-derived circulating tumor cells; assay: Ex vivo viability assay (CellTiter-Glo) on patient-derived CTC spheroids, oral cancer; settings: for relative survival rate / anti-CTC effect compared with the 5-FU group: 6 days; for relative survival rate: vs untreated control cells; for drug sensitivity of OC patient organoids: Cisplatin and Carboplatin at the same concentration, Figure S3; for anti-CTC effect compared with the 5-FU group: 4 and 20 µg/mL
Protocol: (§1) Patients who were diagnosed with oral cancer (OC), hepatocellular carcinoma (HCC) and colorectal cancer (CRC) with stage III or IV were recruited and provided written informed consent to participate in this study. For patients enrolled, clinical profiles including initial cancer staging, medication information, and treatment responses were recorded. Peripheral blood (7.5 mL) was collected in vacated ethylenediaminetetraacetic acid (EDTA) tubes and peripheral blood mononuclear cells (PBMCs) were isolated by gradient gravity centrifugation using Ficoll-Paque. Blood was added to a LeucoSep tube filling with 15 mL of Ficoll-Paque Plus in the bottom of the frit and centrifuged to obtain the PBMC fraction. Then PBMC was resuspended in phosphate-buffered saline (PBS) containing 1% BSA, 2 mM EDTA where CTC was enriched by RosetteSep® CTC Enrichment Cocktail kit. Briefly, the PBMC pellet is incubated with antibodies at room temperature, followed by the addition of PBS containing 2% FBS to the diluted sample. The diluted sample was added on the top of Ficoll-Paque for another centrifugation, then enriched cells were obtained and suspended in DMEM/F12 medium containing EGF, bFGF, and B27 supplement. Cells were seeded onto a substrate of binary colloidal crystals (BCCs). The structure of BCCs has been reported for its ability to enhance the expansion of rare cancer cells. The medium was replaced in each well every four days. Tumor-derived CTC spheroids were checked by optical microscopy.
(§2) To test the anti-tumor activity of natural compounds, CTC spheroids were allowed to grow for four weeks then spheroids were collected to seed into other BCC plates and incubated for 16 h. Two chemotherapy drugs used as the positive control including 5-FU (30 µM), Cisplatin (14.4 µM), GKA201, GKB202 and GKC203 (4 µg/mL and 20 µg/mL) were added to cells and incubated for six days. Cell viability was determined by a CellTiter-Glo® Luminescent Cell Viability Assay (Promega Corporation, Madison, WI, US) where cells were incubated with a Cell-Titer Glo reagent for 10 min and the luminescence was read on a GloMax® Navigator Microplate Luminometer (Promega Corporation, Madison, WI, US). The relative cell viability was calculated as the percentage of cells treated with drugs or natural compounds compared with untreated control cells.

[2] = tested on: hepatocellular carcinoma (HCC) patient-derived circulating tumor cells; assay: Ex vivo viability assay (CellTiter-Glo) on patient-derived CTC spheroids, hepatocellular carcinoma; settings: 6 days; for relative survival rate: vs untreated control cells; for anti-CTC effect compared with the 5-FU group: 4 and 20 µg/mL
Protocol: as §1, §2

[3] = tested on: colorectal cancer (CRC) patient-derived circulating tumor cells; assay: Ex vivo viability assay (CellTiter-Glo) on patient-derived CTC spheroids, colorectal cancer; settings: 6 days; for relative survival rate: vs untreated control cells; for anti-CTC effect compared with the 5-FU group: 4 and 20 µg/mL
Protocol: as §1, §2

Row | SMILES | drug sensitivity of OC patient organoids [1] | anti-CTC effect compared with the 5-FU group [1] | anti-CTC effect compared with the 5-FU group [2] | anti-CTC effect compared with the 5-FU group [3] | further results
1 | O=c1[nH]cc(F)c(=O)[nH]1 [5-FU] | – | – | – | – | relative survival rate ([1]; 5-FU 30 µM): 51 ± 13%; relative survival rate ([2]; 5-FU 30 µM): 43 ± 2%; relative survival rate ([3]; 5-FU 30 µM): 49 ± 13%
2 | N.N.O=C([O-])C1(C(=O)[O-])CCC1.[Pt+2] [Carboplatin] | resistant | – | – | – | –
3 | N.N.[Cl][Pt][Cl] [Cisplatin] | sensitive | – | – | – | relative survival rate ([1]; Cisplatin 14.4 µM): 21 ± 0.3%; relative survival rate ([2]; Cisplatin 14.4 µM): 28 ± 5.8%; relative survival rate ([3]; Cisplatin 14.4 µM): 49 ± 10%
4 | CC(C)=CCOc1ccc(C2=C(CC(C)C)C(=O)OC2=O)cc1 [GKA201] | – | no significance | no significance | no significance | –
5 | CC(C)=CCOc1ccc(C2=C(CC(C)C)C(=O)N(O)C2=O)cc1 [GKC203] | – | no significance | no significance | no significance | –
